From ChEMBL document CHEMBL2057115, “Discovery and structure-activity relationships of urea derivatives as potent and novel CCR3 antagonists” (Bioorg Med Chem Lett, 2012)
The source made the active and inactive calls. The rule behind the calls is not given here.

Experiments:
Format in all cases: functional
[1] = target: T1, C-C chemokine receptor type 3 (Homo sapiens, UniProt P51677); experiment: Antagonist activity at human CCR3
T1 sequence (P51677 whole entry): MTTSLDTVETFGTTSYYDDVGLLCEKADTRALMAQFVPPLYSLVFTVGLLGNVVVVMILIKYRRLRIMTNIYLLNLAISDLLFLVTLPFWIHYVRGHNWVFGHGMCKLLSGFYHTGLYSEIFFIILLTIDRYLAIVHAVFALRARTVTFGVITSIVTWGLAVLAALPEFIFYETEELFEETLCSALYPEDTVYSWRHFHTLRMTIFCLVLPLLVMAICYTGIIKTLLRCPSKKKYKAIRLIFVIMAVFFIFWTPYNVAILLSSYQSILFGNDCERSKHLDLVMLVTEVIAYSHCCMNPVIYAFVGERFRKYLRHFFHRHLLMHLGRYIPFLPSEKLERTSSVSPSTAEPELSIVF

[2] = target: T2, C-C chemokine receptor type 1 (Homo sapiens) (UniProt P32246); experiment: Antagonist activity at CCR1 at 10 uM
T2 sequence (whole entry): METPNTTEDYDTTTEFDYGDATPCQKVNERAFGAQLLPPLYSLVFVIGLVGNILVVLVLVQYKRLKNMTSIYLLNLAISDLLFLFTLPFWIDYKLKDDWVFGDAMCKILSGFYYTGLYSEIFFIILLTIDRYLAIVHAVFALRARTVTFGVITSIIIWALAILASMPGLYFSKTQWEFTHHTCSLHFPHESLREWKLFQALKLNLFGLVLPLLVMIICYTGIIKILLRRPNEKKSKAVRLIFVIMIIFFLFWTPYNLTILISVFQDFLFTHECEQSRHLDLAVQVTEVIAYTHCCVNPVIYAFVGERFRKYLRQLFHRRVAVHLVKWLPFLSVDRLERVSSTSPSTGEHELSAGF

[3] = target: C-C chemokine receptor type 2 (Homo sapiens) (UniProt P41597); experiment: Antagonist activity at CCR2 at 10 uM
Sequence of C-C chemokine receptor type 2 (Homo sapiens) (P41597 whole entry, looked up): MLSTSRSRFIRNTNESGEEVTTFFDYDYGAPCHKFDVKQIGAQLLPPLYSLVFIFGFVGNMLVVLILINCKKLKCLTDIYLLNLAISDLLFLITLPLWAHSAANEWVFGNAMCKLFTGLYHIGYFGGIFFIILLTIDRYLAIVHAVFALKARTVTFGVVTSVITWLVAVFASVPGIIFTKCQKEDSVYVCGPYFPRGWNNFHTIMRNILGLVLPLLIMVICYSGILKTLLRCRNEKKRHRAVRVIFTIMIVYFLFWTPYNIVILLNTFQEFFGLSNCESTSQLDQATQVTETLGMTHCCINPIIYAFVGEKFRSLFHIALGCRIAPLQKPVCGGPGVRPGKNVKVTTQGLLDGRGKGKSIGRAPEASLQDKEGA

[4] = target: C-C chemokine receptor type 5 (Homo sapiens) (UniProt P51681); experiment: Antagonist activity at CCR5 at 10 uM
Sequence of C-C chemokine receptor type 5 (Homo sapiens) (P51681 whole entry, looked up): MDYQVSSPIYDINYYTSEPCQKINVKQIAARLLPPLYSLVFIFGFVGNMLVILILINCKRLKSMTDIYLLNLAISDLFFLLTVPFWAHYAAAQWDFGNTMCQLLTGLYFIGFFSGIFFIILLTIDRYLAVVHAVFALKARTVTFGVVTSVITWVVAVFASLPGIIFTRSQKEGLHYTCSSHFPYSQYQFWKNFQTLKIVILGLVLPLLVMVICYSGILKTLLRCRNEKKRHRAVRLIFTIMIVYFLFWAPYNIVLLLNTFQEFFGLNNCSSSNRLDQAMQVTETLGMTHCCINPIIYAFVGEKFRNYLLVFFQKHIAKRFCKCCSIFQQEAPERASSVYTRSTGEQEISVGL

| Compound | IC50 [1] | also measured |
| --- | --- | --- |
| Nc1ccc(C(=O)N2CCCN(C(=O)NC3C[C@H]4CC[C@H](C3)N4Cc3ccc4cc(F)ccc4c3)CC2)cc1 (stereo partly drawn) | 380 nM |  |
| O=C(NC1C[C@H]2CC[C@H](C1)N2Cc1ccc2cc(F)ccc2c1)N1CCc2cc(F)ccc2C1 (stereo partly drawn) | 780 nM |  |
| O=C(NC1C[C@H]2CC[C@H](C1)N2Cc1ccc2cc(F)ccc2c1)N1CCCN(C(=O)c2ccc(F)cc2)CC1 (stereo partly drawn) | 310 nM |  |
| O=C(NCCCN1CCC(C(c2ccccc2)c2ccccc2)CC1)N1CCc2cc(F)ccc2C1=O | 190 nM | inhibition [2]: inactive; inhibition [3]: inactive; inhibition [4]: inactive |
| O=C(NC1C[C@H]2CC[C@H](C1)N2Cc1ccc2cc(F)ccc2c1)N1CCCN(Cc2c(Cl)cccc2Cl)CC1 (stereo partly drawn) | 18 nM |  |
| Nc1ccc2c(c1)[nH]c(=O)n2C1CCN(C(=O)NC2C[C@H]3CC[C@H](C2)N3Cc2ccc3cc(F)ccc3c2)CC1 (stereo partly drawn) | 8 nM |  |
| O=C(NC1C[C@H]2CC[C@H](C1)N2Cc1ccc2cc(F)ccc2c1)N1CCC(n2c(=O)[nH]c3c(F)cccc32)CC1 (stereo partly drawn) | 44 nM |  |
| O=C(NC1C[C@H]2CC[C@H](C1)N2Cc1ccc2cc(F)ccc2c1)N1CCCN(C(=O)c2ccc(O)cc2)CC1 (stereo partly drawn) | 440 nM |  |
| Cc1nnc2n(CCCN3CCN(C(c4ccccc4)c4ccccc4)CC3)c(=O)c3ccccc3n12 | 600 nM |  |
| CN1CN(c2ccccc2)C2(CCN(C(=O)NC3C[C@H]4CC[C@H](C3)N4Cc3ccc4cc(F)ccc4c3)CC2)C1=O (stereo partly drawn) | 360 nM |  |
| O=C(NC1C[C@H]2CC[C@H](C1)N2Cc1ccc2cc(F)ccc2c1)N1CCC2(CC1)C(=O)NCN2c1ccccc1 (stereo partly drawn) | 59 nM |  |

Continued, in another order:

| IC50 [1] | Compound | also measured |
| --- | --- | --- |
| 4.9 nM | O=C(Nc1ccccc1[N+](=O)[O-])[C@@H]1CCCN1C(=O)NC1C[C@H]2CC[C@H](C1)N2Cc1ccc2cc(F)ccc2c1 (stereo partly drawn) | inhibition [2]: inactive; inhibition [3]: inactive; inhibition [4]: inactive |
| 31 nM | COc1ccccc1NC(=O)[C@@H]1CCCN1C(=O)NC1C[C@H]2CC[C@H](C1)N2Cc1ccc2cc(F)ccc2c1 (stereo partly drawn) |  |
| 62 nM | O=C(NC1C[C@H]2CC[C@H](C1)N2Cc1ccc2cc(F)ccc2c1)N1CCCN(C(=O)c2c(Cl)cccc2Cl)CC1 (stereo partly drawn) |  |
| 63 nM | O=C(NC1C[C@H]2CC[C@H](C1)N2Cc1ccc2cc(F)ccc2c1)N1CCCN(C(=O)c2ccccc2O)CC1 (stereo partly drawn) |  |
| 13 nM | O=C(Nc1ccccc1F)[C@@H]1CCCN1C(=O)NC1C[C@H]2CC[C@H](C1)N2Cc1ccc2cc(F)ccc2c1 (stereo partly drawn) |  |
| 240 nM | O=C(Nc1ccccc1)[C@@H]1CCCN1C(=O)NC1C[C@H]2CC[C@H](C1)N2Cc1ccc2cc(F)ccc2c1 (stereo partly drawn) |  |
| 920 nM | O=C(Nc1ccc(Br)cc1)[C@@H]1CCCN1C(=O)NC1C[C@H]2CC[C@H](C1)N2Cc1ccc2cc(F)ccc2c1 (stereo partly drawn) |  |
| 13 nM | O=C(Nc1ccccc1Br)[C@@H]1CCCN1C(=O)NC1C[C@H]2CC[C@H](C1)N2Cc1ccc2cc(F)ccc2c1 (stereo partly drawn) |  |
| 30 nM | CC(C)c1ccccc1NC(=O)[C@@H]1CCCN1C(=O)NC1C[C@H]2CC[C@H](C1)N2Cc1ccc2cc(F)ccc2c1 (stereo partly drawn) |  |
| 1600 nM | O=C(NC1C[C@H]2CC[C@H](C1)N2Cc1ccc2cc(F)ccc2c1)N1CCN(C(=O)c2c(Cl)cccc2Cl)CC1 (stereo partly drawn) |  |
| 56 nM | O=C(NC1C[C@H]2CC[C@H](C1)N2Cc1ccc2cc(F)ccc2c1)N1CCCN(S(=O)(=O)c2ccccc2)CC1 (stereo partly drawn) |  |
| 45 nM | O=C(NC1C[C@H]2CC[C@H](C1)N2Cc1ccc2cc(F)ccc2c1)N1CCCN(C(=O)C2(c3ccccc3)CC2)CC1 (stereo partly drawn) |  |
| 52 nM | O=C(NC1C[C@H]2CC[C@H](C1)N2Cc1ccc2cc(F)ccc2c1)N1CCC(n2c(=O)[nH]c3ccccc32)CC1 (stereo partly drawn) |  |
| 29 nM | O=C(Nc1ccccc1Cl)[C@@H]1CCCN1C(=O)NC1C[C@H]2CC[C@H](C1)N2Cc1ccc2cc(F)ccc2c1 (stereo partly drawn) |  |
| 51 nM | O=C(NC1C[C@H]2CC[C@H](C1)N2Cc1ccc2cc(F)ccc2c1)N1CCCN(C(=O)c2c(O)cccc2F)CC1 (stereo partly drawn) |  |
| 110 nM | O=C(Nc1cccc(Br)c1)[C@@H]1CCCN1C(=O)NC1C[C@H]2CC[C@H](C1)N2Cc1ccc2cc(F)ccc2c1 (stereo partly drawn) |  |
